Key:
[1] = system: chien; assay: Chronic toxicity in the dog, oral, 13 weeks; type: in vivo; conditions: 35 mg/Kg/jour, 13 semaines
[2] = system: lapin; assay: Chronic toxicity in the rabbit, ocular instillation, 13 weeks; type: in vivo; conditions: instillation oculaire, 4 doses par jour, solution à 0,9 g (pour 100 ml), 13 semaines
[3] = Solubility (description of the product); type: physicochemical

Q: Which “toxicité locale et/ou systématique” value [1] does the source give for `CCCCCCCCCCCCOCCCN` [Lopa, amino-1 dodécyloxy-3 propane] here?
A: Its value is “aucune toxicité locale et/ou systématique”.

Q: And the “toxicité locale et/ou systématique” value [2]?
A: The value was “aucune toxicité locale et/ou systématique”.

Q: And the solubility in water ([3]; eau)?
A: The solubility in water was “insoluble dans l'eau”.

Q: And the “solubility in organic solvents” value ([3]; méthanol, chloroforme, acétone, benzène)?
A: Its value is “soluble dans divers solvants organique”.

From patent publication EP0067084B1, “Eye-lotion compositions for the treatment of conjunctivitis and keratitis” (Laboratoires P.O.S. Société Anonyme dite:, priority 1981, dated 1982)
